Laboratory results: patent US20080269266A1, “NOVEL COMPOUNDS 747” (ASTRAZENECA AB, priority 2007, published 2008)

How the values were obtained:
[1] = target: hERG (human ether-a-go-go-related gene) ion channel (Homo sapiens, UniProt Q12809); test: hERG; format: cell-based
Excerpt: Conclusion: Compounds of the present invention (Example 1) while showing good IGF inhibition, also show decreased Cytochrome P450 inhibition when compared to a known IGF inhibitor (Comparative Example A). Low inhibition of Cytochrome P450 is desirable to ameliorate potential drug: drug interactions. hERG hERG can be tested according to the methods described in Journal of Pharmacolgical and Toxicological Methods 2006, 54, 189-199.

[2] = target: T1, human cytochrome P450 (CYP) 2C9 (Homo sapiens, UniProt P11712); test: Cytochrome P450 Inhibition Assay 2C9; format: in vitro ADME; conditions: test compound final concentrations 0.1-10 μM; substrate MFC
T1 construct: made in house; host or cells: yeast cell lines (microsomal fractions)
T1 sequence (P11712 whole entry): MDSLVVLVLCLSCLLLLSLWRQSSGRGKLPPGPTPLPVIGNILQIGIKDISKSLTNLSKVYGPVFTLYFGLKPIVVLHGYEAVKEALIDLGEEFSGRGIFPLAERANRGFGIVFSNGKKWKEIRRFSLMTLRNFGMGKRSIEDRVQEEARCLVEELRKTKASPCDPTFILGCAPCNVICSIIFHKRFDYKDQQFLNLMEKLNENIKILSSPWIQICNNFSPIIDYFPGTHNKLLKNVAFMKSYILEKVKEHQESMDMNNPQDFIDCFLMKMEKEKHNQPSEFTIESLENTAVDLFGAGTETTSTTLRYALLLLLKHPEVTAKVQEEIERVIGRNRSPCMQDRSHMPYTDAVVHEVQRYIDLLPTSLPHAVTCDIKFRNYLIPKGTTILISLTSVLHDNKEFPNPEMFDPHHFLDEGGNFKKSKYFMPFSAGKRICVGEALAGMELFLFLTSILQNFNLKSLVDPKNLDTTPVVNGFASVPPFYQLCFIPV
Protocol: The inhibitory potential (IC50) of test compounds against 5 human cytochrome P450 (CYP) isoforms (1A2, 2C9, 2C19, 3A4 and 2D6) was assessed using an automated fluorescent end point in vitro assay modified from Crespi (Crespi and Stresser, 2000). Microsomal subcellular fractions prepared from Yeast cell lines expressing each human CYP isoform were used as an enzyme source in this assay. The activity of the 5 major human CYPs was determined from the biotransformation of a number of coumarin substrates to fluorescent metabolites, in the presence of NADPH. […] Stock solutions of each CYP, with its respective substrate, were prepared in phosphate buffer pH7.4 (see Table 1) and 178 μl was added to the well of a black solid, flat bottom, 300 μl 96 well is microtitre plate (Corning Costar). […] After pre-incubating at 37° C. for 5 min the reactions were started with addition of NADPH (20 μl, concentration shown in Table 1). […] The appropriate solvent controls and substrate blanks were included in each experiment to assess control activity and identify any inherent fluorescence due to the test compounds. […] The plates were read on a fluorimeter (Spectrafluor Plus) at the appropriate excitation and emission wavelengths (listed in Table 2) and the percent activity, corrected for control, was plotted against the test compound concentration.

[3] = target: T2, human IR (Homo sapiens, UniProt P06213); test: Inhibition of Insulin Receptor Phosphorylation in CHOT cells; format: cell-based; conditions: for IC50: median, CHOT cells stimulated with 30 nM Insulin
T2 construct: expressed in transfected cells; host or cells: CHOT cells (CHO stably transfected with human IR)
T2 sequence (P06213 28-1382): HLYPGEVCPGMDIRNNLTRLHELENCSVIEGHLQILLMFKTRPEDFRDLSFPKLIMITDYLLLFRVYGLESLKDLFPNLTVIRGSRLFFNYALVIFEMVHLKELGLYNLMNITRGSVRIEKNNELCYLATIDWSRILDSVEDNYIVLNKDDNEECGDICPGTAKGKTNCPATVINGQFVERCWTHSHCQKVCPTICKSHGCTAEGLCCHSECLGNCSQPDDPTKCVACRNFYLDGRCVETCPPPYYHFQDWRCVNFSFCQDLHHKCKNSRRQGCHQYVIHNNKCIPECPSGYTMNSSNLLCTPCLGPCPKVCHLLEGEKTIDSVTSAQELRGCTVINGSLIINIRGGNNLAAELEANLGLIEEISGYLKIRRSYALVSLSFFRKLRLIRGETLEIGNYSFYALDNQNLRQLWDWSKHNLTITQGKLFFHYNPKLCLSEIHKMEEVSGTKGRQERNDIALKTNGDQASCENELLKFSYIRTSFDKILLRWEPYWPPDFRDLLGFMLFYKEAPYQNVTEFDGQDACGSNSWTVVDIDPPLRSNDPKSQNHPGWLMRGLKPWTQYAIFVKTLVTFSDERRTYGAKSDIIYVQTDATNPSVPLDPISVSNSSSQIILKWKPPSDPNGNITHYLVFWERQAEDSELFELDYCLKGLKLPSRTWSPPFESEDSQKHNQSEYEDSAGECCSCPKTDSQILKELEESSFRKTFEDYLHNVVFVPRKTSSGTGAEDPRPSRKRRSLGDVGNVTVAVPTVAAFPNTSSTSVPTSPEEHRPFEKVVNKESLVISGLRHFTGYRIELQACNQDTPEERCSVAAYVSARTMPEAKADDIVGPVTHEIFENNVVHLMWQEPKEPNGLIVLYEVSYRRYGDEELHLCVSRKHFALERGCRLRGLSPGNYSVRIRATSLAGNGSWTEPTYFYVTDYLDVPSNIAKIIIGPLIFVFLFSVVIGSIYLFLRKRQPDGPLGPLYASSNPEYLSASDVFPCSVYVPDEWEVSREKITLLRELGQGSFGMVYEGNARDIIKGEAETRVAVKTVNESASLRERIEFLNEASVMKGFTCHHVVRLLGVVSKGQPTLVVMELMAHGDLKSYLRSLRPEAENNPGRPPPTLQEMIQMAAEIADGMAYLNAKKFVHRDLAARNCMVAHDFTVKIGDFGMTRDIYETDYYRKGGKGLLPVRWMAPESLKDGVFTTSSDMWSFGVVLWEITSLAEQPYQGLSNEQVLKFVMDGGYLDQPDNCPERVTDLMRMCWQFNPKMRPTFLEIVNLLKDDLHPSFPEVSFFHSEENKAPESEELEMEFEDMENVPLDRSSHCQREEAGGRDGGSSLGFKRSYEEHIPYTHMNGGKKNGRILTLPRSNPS
Protocol: This immunofluorescence end point cell assay measures the ability of a test compound to reduce the measured levels of IR phosphorylation after insulin stimulation in CHOT cells. CHOT cells are Chinese Hamster Ovary cells (CHO) stable transfected with human IR. CHOT cells are routinely cultured in Hams F12 growth medium supplemented with 200 ug/ml Geneticin, 2.5 mM HEPES, 2 mM L-Glutamine (Invitrogen Code no. 25030-024) and 10% (v/v) foetal bovine serum (FBS) in a 5% CO2 air incubator at 37° C.
To undertake the assay, the CHOT cells are seeded at 5×10^3 cells/well in Hams F12 medium plus 2.5 mM HEPES, 1% foetal calf serum and 2 mM L-Glutamine in 96-well black Packard View plates (PerkinElmer 6005182) and incubated at 37° C. (+5% CO2) in a humidified incubator. The following day, the plates are dosed with 10 μl of 10× concentrated compound (diluted from 10 mM stock in DMSO and Hams F12 without serum) and the plates are returned to a humidified 37° C. (+5% CO2) incubator for 30 minutes. […]
Following the compound treatment, the CHOT cells are stimulated with a final concentration of 30 nM Insulin (Sigma #I-9278) for 10 minutes at 37° C. […] Additionally, in-house antibodies raised against phospho IR were also used at a suitable titre determined for each batch. […]
The Green Fluorescent phospho IR-associated signal in each well was measured using an Acumen Explorer HTS Reader (TTP Labtech Ltd., Cambridge). Phospho IR-associated fluorescence emission can be detected at 530 nm following excitation at 488 nm. The instrument is a laser-scanning fluorescence microplate cytometer, which samples the well at regular intervals and uses threshold algorithms to identify all fluorescent intensities above the solution background without the need to generate and analyse an image. These fluorescent objects can be quantified and provide a measure of the phospho IR levels in cells. Fluorescence dose response data obtained with each compound was exported into a suitable software package (such as Origin) to perform curve fitting analysis. […]

[4] = Protein binding by equilibrium dialysis; format: in vitro ADME; conditions: rat, equilibrium dialysis against 10% plasma, 37° C., read-out: Protein binding, % free
Protocol: Protein binding is determined by equilibrium dialysis. A 20 iM concentration of compound is dialyzed against 10% plasma at a temperature of 37° C. for 18 h. The resulting samples are analyzed using generic HPLC-UV methodology coupled with mass spectral peak identification. The reported K1 value is the first apparent association constant [proteináligand]/([protein][ligand]), all concentrations being measured in moles/liter (J. Med. Chem., 2006, 49(23), 6672-6682).
Protein binding can be measured in a high-throughput screen by equilibrium dialysis combined with liquid chromatography and mass spectrometry (Wan, H. and Rehngren, M., J. Chromatogr. A 2006, 1102, 125-134).

Sequence of hERG (human ether-a-go-go-related gene) ion channel (Q12809 whole entry): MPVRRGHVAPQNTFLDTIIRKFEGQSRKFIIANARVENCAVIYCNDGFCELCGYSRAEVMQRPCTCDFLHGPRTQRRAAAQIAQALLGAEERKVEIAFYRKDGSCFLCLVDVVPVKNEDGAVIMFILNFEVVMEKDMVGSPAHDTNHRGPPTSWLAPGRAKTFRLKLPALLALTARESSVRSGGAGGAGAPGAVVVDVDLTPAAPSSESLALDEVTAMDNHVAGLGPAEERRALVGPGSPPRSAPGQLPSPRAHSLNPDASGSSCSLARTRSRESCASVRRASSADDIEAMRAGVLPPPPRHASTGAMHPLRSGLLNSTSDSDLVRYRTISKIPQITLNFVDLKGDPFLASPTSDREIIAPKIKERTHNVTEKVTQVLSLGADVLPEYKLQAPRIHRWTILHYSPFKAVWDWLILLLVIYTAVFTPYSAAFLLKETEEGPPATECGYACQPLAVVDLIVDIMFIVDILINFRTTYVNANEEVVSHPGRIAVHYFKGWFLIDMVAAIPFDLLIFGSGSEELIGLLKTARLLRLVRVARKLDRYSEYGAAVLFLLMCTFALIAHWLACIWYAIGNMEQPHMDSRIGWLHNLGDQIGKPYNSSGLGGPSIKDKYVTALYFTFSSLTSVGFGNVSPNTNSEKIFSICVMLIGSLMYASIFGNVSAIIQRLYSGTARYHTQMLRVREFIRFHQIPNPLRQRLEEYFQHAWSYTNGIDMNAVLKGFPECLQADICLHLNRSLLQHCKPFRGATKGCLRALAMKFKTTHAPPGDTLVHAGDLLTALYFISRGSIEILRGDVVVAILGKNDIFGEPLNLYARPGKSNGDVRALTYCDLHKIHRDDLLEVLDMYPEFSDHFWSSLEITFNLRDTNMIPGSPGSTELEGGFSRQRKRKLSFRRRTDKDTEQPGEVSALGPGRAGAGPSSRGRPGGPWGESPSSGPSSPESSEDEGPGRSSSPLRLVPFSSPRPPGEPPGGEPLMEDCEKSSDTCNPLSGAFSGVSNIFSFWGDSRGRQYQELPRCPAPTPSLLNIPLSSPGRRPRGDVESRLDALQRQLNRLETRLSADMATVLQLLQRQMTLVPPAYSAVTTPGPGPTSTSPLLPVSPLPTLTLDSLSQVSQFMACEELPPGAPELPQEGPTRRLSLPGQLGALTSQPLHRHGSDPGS

SMILES | IC50 [1] [µM] | IC50 [2] [µM] | IC50 [3] [µM] | fraction unbound at 18 h, 20 µM [4] | difference in the Inhibition of Insulin Receptor Phosphorylation assay ([3]; Example 1 compared with Comparative Example A)
CCc1cc(Nc2cc(OC)nc(N3CCC[C@H]3c3cc(-c4ncccn4)no3)n2)n[nH]1 [Comparative Example A, (S)-6-Methoxy-2-{2-[3-(pyrimid-2-yl)isoxazol-5-yl]pyrrolidin-1-yl}-4-(5-ethyl-1H-pyrazol-3-ylamino)pyrimidine] | 25.2 | > 10 | 0.00325 | 0.0205 | 
COc1cc(Nc2cc(C)n[nH]2)nc(N2CCC[C@H]2c2cc(-c3ncccn3)no2)n1 [Example 1, (S)-6-Methoxy-2-{2-[3-(pyrimid-2-yl)isoxazol-5-yl]pyrrolidin-1-yl}-4-(5-methyl-1H-pyrazol-3-ylamino)pyrimidine] | > 32 | > 10 | 0.035 | 0.0523 | ten-fold
